# Laboratory results reported in ChEMBL document CHEMBL3112517, “Identification of dihydrostilbenes in Pholidota chinensis as a new scaffold for GABAA receptor modulators” (Bioorg Med Chem, 2014).
# Biological target: GABA-A receptor; alpha-1/beta-3/gamma-2 (Homo sapiens) (UniProt P14867+P18507+P28472)
# Test: Modulation of GABAA alpha1beta3gamma2S receptor (unknown origin) expressed in Xenopus laevis oocytes assessed as potentiation of EC3 to 10 GABA-induced chloride ion current at holding potential -70 mV 1 to 300 uM by two-microelectrode voltage clamp assay relative to GABA-treated control
# Format: cell-based
smiles,measurement,value
COc1cc(O)cc(CCc2cccc(O)c2)c1 [BATATASIN III],Imax,1250%
